Test results taken from patent publication US20070003672A1, “Tri-part calcium fortified compositions and methods of making the same” (priority 2005, published 2007).
Values joined by “and” are separate entries in the source; they are usually repeats but may differ in a detail not shown here. Identical values can stand only once.

Assay: Physical/chemical attributes (calcium, pH, titratable acidity, Brix, Brix/Acid ratio) of calcium fortified orange juice
Assay type: physicochemical
Set-up: unit not given here
Conditions: orange juice fortified at 450 mg/100 mL calcium load
Excerpt: The flavor of orange juice, for example, can be characterized by a unique balance of sweetness resulting from the sugar content and tartness resulting from the acid content. A challenge of fortifying orange juice with nutritionally significant amounts of calcium is maintaining the sweet to tart balance. This balance can be expressed analytically as the Brix to acid ratio, as described above. The Brix component of the ratio is the measure of soluble solids in the beverage often determined by a refractometer. The acid component can be determined by titration with a base such as sodium hydroxide. The Brix to acid ratio is an analytical representation or measure of the sweet to tart taste balance.
A variety of calcium salts, i.e., the calcium components, were evaluated to determine their effects on the Brix-acid ratio. In this evaluation, orange juices fortified with different calcium salts were prepared at 450 mg/100 mL of calcium load. […]
Orange juices fortified with various combinations of calcium salts, i.e. calcium components, were evaluated based on physical/chemical attributes compared to unfortified orange juice.

| Molecule | Calcium - Juice (48 Hours) | Calcium - Juice (48 Hours) (citrate) |
| --- | --- | --- |
| O=C[O-].O=C[O-].[Ca+2] [calcium formate] | 206 | – |
| O.O=P([O-])([O-])OCC(O)CO.[Ca+2] (stereo not shown) [calcium glycerophosphate monohydrate] | 187 | – |
| O.O.O=C([O-])[C@H](O)[C@@H](O)C(=O)[O-].[Ca+2] [calcium L-tartrate dihydrate] | 140 | – |
| O=P([O-])([O-])[O-].O=P([O-])([O-])[O-].[Ca+2].[Ca+2].[Ca+2] [tricalcium phosphate (fine), tricalcium phosphate] | 197 | – |
| O=P([O-])([O-])[O-].O=P([O-])([O-])[O-].[Ca+2].[Ca+2].[Ca+2] [tricalcium phosphate] | 182 | – |
| calcium ascorbate dihydrate | 195 | – |
| O.O.[Ca+2].[Cl-].[Cl-] [calcium chloride dihydrate] | 206 | – |
| CC(O)C(=O)O.O=C(O)[C@H](O)[C@@H](O)[C@H](O)[C@H](O)CO.O=C([O-])CC(O)(CC(=O)[O-])C(=O)O.[Ca+2] [calcium lactate gluconate citrate] | – | 200 and 202 |
| O.O.O=P([O-])([O-])O.[Ca+2] [dicalcium phosphate dihydrate] | 181 | – |
| O=C([O-])CC(O)(CC(=O)[O-])C(=O)[O-].O=C([O-])CC(O)(CC(=O)[O-])C(=O)[O-].[Ca+2].[Ca+2].[Ca+2] [tri-calcium citrate] | 177 | – |
| CC(O)C(=O)[O-].CC(O)C(=O)[O-].O.O.O.O.O.[Ca+2] (stereo not shown) [calcium lactate pentahydrate] | 204 | – |
| calcium gluconate monohydrate | 198 | – |
| O.O=C([O-])CCC(=O)[O-].[Ca+2] [calcium succinate monohydrate] | 206 | – |
| O.O=P([O-])(O)O.O=P([O-])(O)O.[Ca+2] [monocalcium phosphate monohydrate] | 207 | – |
| O=C([O-])CC(O)C(=O)[O-].[Ca+2] (stereo not shown) [calcium malate] | 213 | – |
| O.O.O.O=C([O-])/C=C/C(=O)[O-].[Ca+2] [calcium fumarate trihydrate] | 202 | – |
| N[C@@H](CCC(=O)[O-])C(=O)[O-].O.O.O.O.[Ca+2] [calcium L-glutamate tetrahydrate] | 207 | – |
| O=P([O-])([O-])O.[Ca+2] [dicalcium phosphate anhydrous] | 203 | – |
| O=C([O-])[O-].[Ca+2] [calcium carbonate] | 200 | – |
